# Test results as given in ChEMBL document CHEMBL1201862, “PubChem BioAssay data set” (2004).
#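 Each compound was tested at five concentrations against cells in 96-well plates for 48 hours. GI50 marks 50% less growth.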 Activity calls are given as the source filed them. No stated cut-off is given here; in the data, active = GI50 up to about 1.1 µM and inactive = higher.
# What was measured:
# Assay in all cases: growth of human tumour cells (NCI), 48 h
# [1] = system: A498
# [2] = system: SK-OV-3
# [3] = system: CAKI-1
# [4] = system: HL-60
# [5] = system: SR
# [6] = system: RPMI-8226
# [7] = system: U-251
# [8] = system: SW-620
# [9] = system: OVCAR-3
# [10] = system: UO-31
# [11] = system: SNB-19
# [12] = system: M14
# [13] = system: SN12C
# [14] = system: HOP-92
# [15] = system: HCT-116
# [16] = system: UACC-62
# [17] = system: OVCAR-4
# [18] = system: BT-549
# [19] = system: Hs-578T
Compound,GI50 [1],GI50 [2],GI50 [3],GI50 [4],GI50 [5],GI50 [6],GI50 [7],GI50 [8],GI50 [9],GI50 [10],GI50 [11],GI50 [12],GI50 [13],GI50 [14],GI50 [15],GI50 [16],GI50 [17],GI50 [18],GI50 [19]
Nc1ccc2c(c1)Oc1c(F)c(F)cc3c(=O)c(C(=O)O)cn-2c13,4 µM (inactive),> 100 µM (inactive),32.1 µM (inactive),38.9 µM (inactive),34.6 µM (inactive),25.2 µM (inactive),34.2 µM (inactive),41.3 µM (inactive),22.1 µM (inactive),27.3 µM (inactive),35.2 µM (inactive),81.5 µM (inactive),39.1 µM (inactive),25.1 µM (inactive),24.2 µM (inactive),31.3 µM (inactive),40.1 µM (inactive),,
COC(=O)C1=CC2C(=O)c3ccccc3C1(c1ccccc1)N2C1CCCCC1 (configuration not stated),26.7 µM (inactive),31 µM (inactive),20.5 µM (inactive),11.6 µM (inactive),,,16.6 µM (inactive),27.2 µM (inactive),23.6 µM (inactive),15.1 µM (inactive),39.9 µM (inactive),20 µM (inactive),24 µM (inactive),22.6 µM (inactive),25.1 µM (inactive),,17.1 µM (inactive),22.6 µM (inactive),
CC(C)(C)C(=O)C(CC(=O)c1ccccc1)C(=O)C(C)(C)C,> 100 µM (inactive),> 100 µM (inactive),> 100 µM (inactive),> 100 µM (inactive),,> 100 µM (inactive),> 100 µM (inactive),> 100 µM (inactive),> 100 µM (inactive),> 100 µM (inactive),> 100 µM (inactive),> 100 µM (inactive),> 100 µM (inactive),44.7 µM (inactive),> 100 µM (inactive),,> 100 µM (inactive),,77.3 µM (inactive)
NC(Cc1ccccc1)C(=O)OCN1C(=O)C2C3C=CC(C2C1=O)C1C2C(=O)N(COC(=O)C(N)Cc4ccccc4)C(=O)C2C31 (configuration not stated),,27.9 µM (inactive),,32.2 µM (inactive),,18.7 µM (inactive),17.3 µM (inactive),23.3 µM (inactive),28.4 µM (inactive),,43.1 µM (inactive),19.5 µM (inactive),20.8 µM (inactive),41.8 µM (inactive),23 µM (inactive),20.7 µM (inactive),23.3 µM (inactive),,
N#CC1C(=O)NC23CCCCC2C1c1ccccc1O3 (configuration not stated),> 100 µM (inactive),> 100 µM (inactive),> 100 µM (inactive),> 100 µM (inactive),,> 100 µM (inactive),> 100 µM (inactive),> 100 µM (inactive),> 100 µM (inactive),> 100 µM (inactive),> 100 µM (inactive),> 100 µM (inactive),,0.241 µM (active),> 100 µM (inactive),> 100 µM (inactive),> 100 µM (inactive),> 100 µM (inactive),
O=c1c2ccccc2n2c(S)nnc2n1-c1ccccc1,> 100 µM (inactive),> 100 µM (inactive),> 100 µM (inactive),> 100 µM (inactive),> 100 µM (inactive),,> 100 µM (inactive),> 100 µM (inactive),> 100 µM (inactive),> 100 µM (inactive),> 100 µM (inactive),> 100 µM (inactive),> 100 µM (inactive),,> 100 µM (inactive),> 100 µM (inactive),> 100 µM (inactive),,
CC(=O)/N=C1/N(/C=C2\C(=O)Oc3ccccc3C2=O)C(=O)/C(=C/c2ccc(OC(C)=O)cc2)N1C,9.18 µM (inactive),> 100 µM (inactive),> 100 µM (inactive),> 100 µM (inactive),> 100 µM (inactive),> 100 µM (inactive),> 100 µM (inactive),> 100 µM (inactive),83.4 µM (inactive),,,> 100 µM (inactive),> 100 µM (inactive),,> 100 µM (inactive),> 100 µM (inactive),> 100 µM (inactive),,> 100 µM (inactive)
Cc1c(Cl)ccc2c1NC(=O)C2(O)C1Cc2ccccc2C1=O (configuration not stated),> 100 µM (inactive),> 100 µM (inactive),> 100 µM (inactive),21.2 µM (inactive),27.9 µM (inactive),42.5 µM (inactive),27.7 µM (inactive),> 100 µM (inactive),> 100 µM (inactive),92.9 µM (inactive),> 100 µM (inactive),> 100 µM (inactive),> 100 µM (inactive),> 100 µM (inactive),62.7 µM (inactive),72.6 µM (inactive),86.5 µM (inactive),,
Brc1ccc(/N=c2/nc3ccccn3n3nc(-c4ccccc4)cc23)cc1,,> 100 µM (inactive),15.9 µM (inactive),> 100 µM (inactive),> 100 µM (inactive),> 100 µM (inactive),29 µM (inactive),63.2 µM (inactive),22.1 µM (inactive),> 100 µM (inactive),28.5 µM (inactive),13.7 µM (inactive),81.8 µM (inactive),17.8 µM (inactive),52.6 µM (inactive),15.1 µM (inactive),5.89 µM (inactive),,
NC(=O)N1N=C2c3ccccc3SC[C@H]2[C@@H]1c1ccccc1,35.1 µM (inactive),,,21.3 µM (inactive),30 µM (inactive),33.4 µM (inactive),22.1 µM (inactive),33.7 µM (inactive),16.9 µM (inactive),23.9 µM (inactive),34.5 µM (inactive),,33.8 µM (inactive),,13.5 µM (inactive),,26.9 µM (inactive),,
CC(=O)Nc1cc(C(=O)Nc2cc(C(=O)Nc3cc(C(=O)Nc4cc(C(=O)Nc5cc(C(=O)NCCC(=O)NCCCN(C)C)n(C)c5)n(C)c4)n(C)c3)n(C)c2)n(C)c1,> 100 µM (inactive),> 100 µM (inactive),19.5 µM (inactive),41.2 µM (inactive),,> 100 µM (inactive),67.9 µM (inactive),69.5 µM (inactive),> 100 µM (inactive),> 100 µM (inactive),> 100 µM (inactive),> 100 µM (inactive),> 100 µM (inactive),33.5 µM (inactive),37.3 µM (inactive),,> 100 µM (inactive),,34.2 µM (inactive)
COC(=O)C(=O)C(CC(=O)Nc1ccc(C)cc1)C(=O)OC (configuration not stated),,> 100 µM (inactive),> 100 µM (inactive),> 100 µM (inactive),> 100 µM (inactive),> 100 µM (inactive),> 100 µM (inactive),> 100 µM (inactive),> 100 µM (inactive),> 100 µM (inactive),> 100 µM (inactive),> 100 µM (inactive),> 100 µM (inactive),> 100 µM (inactive),> 100 µM (inactive),> 100 µM (inactive),> 100 µM (inactive),,
COc1ccc(N[S+]([O-])c2ccc(-c3ccccc3)cc2)cc1 (configuration not stated),,,> 100 µM (inactive),> 100 µM (inactive),> 100 µM (inactive),> 100 µM (inactive),35.1 µM (inactive),70.8 µM (inactive),> 100 µM (inactive),> 100 µM (inactive),41.8 µM (inactive),86.1 µM (inactive),> 100 µM (inactive),,> 100 µM (inactive),,,,0.667 µM (active)
